{"source": "paper PMC12022909", "about": "“A Multicomponent Reaction-Based Platform Opens New Avenues in Aryl Hydrocarbon Receptor Modulation” (ACS Central Science, 2025)", "key": {"[1]": {"biological_target": "T1, aryl hydrocarbon receptor (AhR) (Homo sapiens, UniProt P35869)", "T1 construct": "AhR-dependent reporter gene activity was determined in human HepG2 cells stably transfected with an XRE; endogenous in cells; host or cells: XRE-HepG2 (human HepG2 hepatoma cells stably carrying an XRE-luciferase plasmid)", "T1 sequence (P35869 11-848)": "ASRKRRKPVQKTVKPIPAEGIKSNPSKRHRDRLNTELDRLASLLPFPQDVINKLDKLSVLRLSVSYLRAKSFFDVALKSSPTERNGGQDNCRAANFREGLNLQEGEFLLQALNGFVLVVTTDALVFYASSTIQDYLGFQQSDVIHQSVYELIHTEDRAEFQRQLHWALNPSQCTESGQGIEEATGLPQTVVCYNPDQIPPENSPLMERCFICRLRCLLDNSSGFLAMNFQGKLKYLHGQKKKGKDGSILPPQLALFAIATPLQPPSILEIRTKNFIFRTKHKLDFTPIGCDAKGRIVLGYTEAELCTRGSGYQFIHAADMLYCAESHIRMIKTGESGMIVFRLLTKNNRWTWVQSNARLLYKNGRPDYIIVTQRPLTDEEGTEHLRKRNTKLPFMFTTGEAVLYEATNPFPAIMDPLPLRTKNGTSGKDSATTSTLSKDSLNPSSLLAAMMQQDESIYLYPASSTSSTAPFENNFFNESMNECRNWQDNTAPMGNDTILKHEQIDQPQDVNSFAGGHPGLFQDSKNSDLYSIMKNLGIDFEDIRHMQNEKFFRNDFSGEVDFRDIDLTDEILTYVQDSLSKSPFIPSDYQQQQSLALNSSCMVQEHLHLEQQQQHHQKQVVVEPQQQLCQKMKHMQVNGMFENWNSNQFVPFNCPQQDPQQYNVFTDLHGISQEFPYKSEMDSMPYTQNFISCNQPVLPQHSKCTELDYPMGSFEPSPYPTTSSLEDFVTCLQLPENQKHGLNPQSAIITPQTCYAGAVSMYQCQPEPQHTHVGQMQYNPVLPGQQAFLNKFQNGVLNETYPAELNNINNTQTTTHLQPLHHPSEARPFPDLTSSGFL", "assay": "AhR/XRE-dependent luciferase reporter gene assay in XRE-HepG2 cells", "format": "cell-based", "conditions": "for EC50: XRE-HepG2 cells, 8 h, unit as in the supplements, read-out: AhR/XRE-dependent luciferase activity EC50"}, "HEK293T cells": {"tested_on": "HEK293T cells", "assay": "Cell viability (Annexin V-APC, flow cytometry) in HEK293T cells", "format": "cell-based", "conditions": "24 h", "method": "A phosphatidylserine exposure was used to determine cell viability. Cells were washed with PBS, pelleted, and then incubated with annexin binding buffer containing Annexin V-APC (Life Technologies) for 15 min in the dark. Then, samples were analyzed by flow cytometry using FACSCanto II and FACSDiva (BD Biosciences, Franklin Lakes, NJ, USA). Data represents the percentage of non - apoptotic cells (Ann -APC-).\nThe cytotoxicity of a selection of the synthesized compounds was assessed after 24 hours of treatment in two human cell lines, Jurkat and HEK293T, coming from either tumoral T-cell lymphocytes or non-tumoral embryonic kidney fibroblasts, respectively. […]\nthe pro-apoptotic activity was not significant below 10 µM for most compounds in both cell lines, except for 5i, 5k and 5l in both cell lines, as well as 9a in Jurkat and 5e HEK293T cells (Figure S35A-B).\nMoreover, the cytotoxicity of compounds 4d, 5b, 5h, 8, 10, and 12d at a higher concentration (100 µM) was assessed in both cell lines, Jurkat and HEK293T. The cytotoxicity of compounds 5b, 5h, and 12d could not be properly tested as the compounds were not soluble […]\neffects observed for compound 4d in Jurkat cells and compound 8 in HEK293T cells (Figure S35C).\nFigure S35. A) Jurkat and B) HEK293T cells were treated with 1 and 10 µM doses of the corresponding compound for 24 hours. Indicated doses of fluorizoline were used as a positive control of cell death. C) Jurkat and HEK293T cells were treated with 100 µM of the corresponding compound for 24 hours. Viability was measured by flow cytometry, and it is expressed as the mean ± SEM (n = 3) of the percentage of non -apoptotic cells (Ann-APC-). * p < 0.05, ** p < 0.01 *** p < […]\n(1 picture or pasted object on this page, not shown here)"}}, "data": [{"smiles": "Cc1[nH]c2ccccc2c1-c1c2[nH]c3ccccc3c2cc2[nH]c3ccccc3c12", "note": "[5e]", "values": [{"measurement": "EC50", "setting": "[1]", "result": 520, "unit": "nM"}, {"measurement": "increase in the EC50 value relative to 5c", "setting": "[1]; from reporter gene EC50 values", "result": 1.4, "unit": "fold"}]}, {"smiles": "CCOc1c2[nH]c3ccccc3c2cc2[nH]c3ccccc3c12", "note": "[compound 8, 6-ethoxy-ICZ]", "values": [{"measurement": "cytotoxicity / pro-apoptotic activity at 100 µM", "setting": "HEK293T cells", "result": "slight cytotoxic effects"}, {"measurement": "EC50", "setting": "[1]", "result": 90, "unit": "nM"}]}]}
